Tested on: 6-OHDA mouse model of Parkinson's disease
Assay: Studies C and D: amphetamine-induced ipsilateral rotations in the 6-OHDA mouse model
Assay type: in vivo, C57BL6 mice
Conditions: Study D, 3 mg/kg oral daily, day 21 after 6-OHDA (12 μg)
Method: To determine the oral efficacy of the compound of formula (I) in the 6-OHDA mouse model of Parkinson's disease.
8-week-old C57BL6 male mice (obtained from ARC, Perth, Australia) were housed under a 12-h light cycle in a SPF climate-controlled facility with food and water provided ad libitum for two weeks prior to study initiation. For treatment with the compound of formula (I), mice were dosed via oral gavage. Ten (10) mice in each group were dosed at 3 or 1 mg/kg, starting the day before (24 hr prior) stereotaxic surgery, and then QD until sacrifice.
6-OHDA (Sigma) was prepared immediately prior to surgeries. A sterile saline (0.9%) solution containing ascorbic acid (0.2%) was used as the vehicle to dissolve 6-OHDA. […] In order to inject a final concentration of 12 μg into the right striatum, a working stock of 6 mg/ml was made injecting a final volume of 2 μl.
Mice were anaesthetized using ketamine (100 mg/kg, i.p.) and xylazine (10 mg/kg i.p.)
anesthesia and were placed into a stereotactic frame with nose and ear bars specially adapted for mice. The lesion was performed using a 5 μl Hamilton syringe to deliver either vehicle or 6-OHDA (12 μg) at the following coordinates relative to bregma: AP: −1.2 mm; ML: −1.7 mm; DV: 3.5 mm into the right dorsal striatum according to the stereotaxic atlas (“The mouse brain in stereotaxic coordinates” by Paxinos and Franklin, 1997). After drilling a 1 mm burr-hole in the skull, a 2 μl volume of solution was infused at the target site at the rate of 0.5 μl per minute. The needle was held in place for at least 5 minutes after injection to minimize retrograde flow along the needle tract. Mice were administered a subcutaneous injection of sterile Ringer's solution to is facilitate recovery and were placed on a heat-pad until complete recovery from anesthesia.
Amphetamine-induced ipsilateral rotations were performed at day 21 post-surgery. Mice were injected with 2 mg/kg of D-amphetamine and placed in circular glass bowls.
After an acclimatization period of five minutes, the net ipsilateral rotations over ten minutes were recorded and counted. Quantitation was performed from recorded videos by an investigator blinded to the treatment groups.
The aim of study D was to compare the neuroprotective efficacy of the compound of formula (I) with MCC95o in the mouse unilateral 6-OHDA model at 3 mg/kg. The amphetamine-induced ipsilateral rotations and striatal dopamine (DA) levels were assessed, using a protocol identical to that used for study C, with ten (10) mice in each group being dosed at 3 mg/kg for each drug, starting the day before (24 hr prior) stereotaxic surgery, and then daily throughout until sacrifice.

CC(C)(O)c1coc(S(=O)(=O)NC(=O)Nc2c3c(cc4c2CCC4)CCC3)c1 [MCC950, reference compound]
reduction in amphetamine-induced rotations relative to the 6-OHDA untreated group: 55%

Source: US20220401414A1, “TREATMENT AND PREVENTION OF A NEURODEGENERATIVE DISORDER” (Inflazome Limited, priority 2019, published 2022)
